# Active and inactive are the calls of the source. No rule for the calls is given here.
# Test: inhibitors of TNFa-induced E-selectin expression, confirmation, imaging, retest plus dose response, cell count (AID 1288);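 also: 0% = stimulated vehicle wells and 100% = unstimulated vehicle wells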
# Conditions: human endothelial cells, TNFa-induced E-selectin, imaging; at 2 µM; hits give high values
row,Compound,inhibition
1,O=C1CC(c2ccccc2)n2nc(NC(=O)C3CCCO3)nc2N1 (configuration not stated),-5.55% (inactive)
2,O=c1c2ccccc2n2c(-c3cccc(F)c3)nnc2n1Cc1ccccc1,-8.49% (inactive)
3,CCCCCCOC(=O)/C=C/c1c(C)[nH]c(=O)[nH]c1=O,30.8% (inactive)
4,CCC(=O)NC(c1ccc([N+](=O)[O-])cc1)c1c(O)ccc2ccccc12 (configuration not stated),0.15% (inactive)
5,O=C(Nc1nnc(-c2ccco2)s1)C1CC1,1.62% (inactive)
6,COc1ccc(C(CC(=O)NCc2ccccc2)Sc2n[nH]c(-c3ccccc3)n2)cc1 (configuration not stated),29.1% (inactive)
7,COc1ccc(C)cc1-n1nnnc1SCC(=O)Nc1cccnc1Cl,-16.5% (inactive)
8,COc1ccc2cc(CN(CCO)C(=O)c3ccccc3F)c(=O)[nH]c2c1,12.6% (inactive)
9,O=C(NCCN1C(=O)CSC1=O)c1ccccc1,1.16% (inactive)
10,CCC(C)Nc1nc(OC(C(F)(F)F)C(F)(F)F)nc(OC(C(F)(F)F)C(F)(F)F)n1 (configuration not stated),9.28% (inactive)
11,Nc1ccc(Br)cc1-c1nc2ccccc2[nH]c1=O,-8.67% (inactive)
12,c1nc(NCCN2CCOCC2)c2sc3nc(N4CCOCC4)c4c(c3c2n1)CCC4,34.1% (inactive)
13,CN1CCN(C(c2ccc(F)cc2)c2nnnn2Cc2cccs2)CC1 (configuration not stated),10.2% (inactive)
14,CCNC(=O)CN(CCc1ccccc1)S(C)(=O)=O,7.43% (inactive)
15,CCN(CC)CCNS(=O)(=O)c1ccc(/C=C/C(=O)O)cc1,13.4% (inactive)
16,COc1cccc(/C=N/NC(=O)c2c(-c3ccccc3)noc2C)c1,4.18% (inactive)
17,O=C(Nc1ccccc1N1CCOCC1)c1ccc(Cl)nc1,3.97% (inactive)
18,CCCCc1c(O)nc(SCC(=O)Nc2ccc3c(c2)CCC3)[nH]c1=O,14.6% (inactive)
19,COc1ccc(C(=O)C(CN2CCOCC2)c2ccccc2)cc1F (configuration not stated),0.43% (inactive)
20,CCc1cc[n+](CC(=O)Nc2ccc(Cl)cc2Cl)cc1,5.98% (inactive)
21,Cc1ccc(N2CCN(/N=C/c3cccs3)CC2)cc1,1.13% (inactive)
22,COc1ccc(C)cc1S(=O)(=O)N(C)CC(=O)N1CCCCC1,-0.62% (inactive)
23,Cn1c(CCNC(=O)c2ccc(Cl)c(Cl)c2)nnc1SCc1ccc(Cl)c(Cl)c1,6.96% (inactive)
24,N#Cc1cccc(-n2c(-c3ccccc3)nnc2-c2ccccc2)c1C#N,4.7% (inactive)
25,O=C(c1cnccn1)N1CCN(c2ccccc2)CC1,30.4% (inactive)

row,Compound,inhibition
1,Cc1ccccc1OCCCC(=O)Nc1ccc(N2CCOCC2)cc1,4.18% (inactive)
2,Cn1c(=O)[nH]c(=O)c2c1nc(N1CCCCC1)n2CCCSc1nnnn1-c1ccccc1,10.1% (inactive)
3,CSc1nc(=O)n2cc(C)ccc2n1,1.88% (inactive)
4,C=CCn1c(O)c(C(C)=Nc2ccc(NC(C)=O)cc2)c(=O)[nH]c1=O,17.3% (inactive)
5,COc1ccc(Cl)cc1NC(=S)NCc1ccco1,2.52% (inactive)
6,Cc1ccc2oc(Nc3nc(-c4ccccc4)cc(=O)[nH]3)nc2c1,10.7% (inactive)
7,COc1cccc(CNc2ccc(F)c(Cl)c2)c1,39.9% (inactive)
8,Cc1ccc(C2(C)NC(=O)N(CCOc3ccccc3)C2=O)cc1 (configuration not stated),3.16% (inactive)
9,CC(Sc1nnc(-c2cccs2)n1Cc1ccccc1)C(=O)NCc1ccc2c(c1)OCO2 (configuration not stated),1.65% (inactive)
10,Cc1c(NC(=O)c2c(N)n(-c3ccccc3)c3nc4ccccc4nc23)c(=O)n(-c2ccccc2)n1C,4.61% (inactive)
11,O=C(CSc1ncccn1)NCc1ccccc1Cl,32.9% (inactive)
12,COc1ccc(OC)c(S(=O)(=O)N(C)CC(=O)Nc2ccc3c(c2)OCO3)c1,5.06% (inactive)
13,COc1ccccc1OCCn1cc(C(=O)c2ccco2)c2ccccc21,12.3% (inactive)
14,COc1ccc(/C(O)=C2/C(=O)C(=O)N(Cc3cccnc3)C2c2ccncc2)cc1F (configuration not stated),19.1% (inactive)
15,Cc1ccc(C2CC(=O)N(c3ccc(F)cc3)C3=C2C(=O)CCC3)cc1 (configuration not stated),4.74% (inactive)
16,CC(=O)N[C@@H](Cc1c[nH]c2ccccc12)C(=O)OCC(=O)Nc1ccc(Cl)c(S(=O)(=O)N(C)C)c1,7.98% (inactive)
17,COc1ccc(C2(CNC(=O)c3cc([N+](=O)[O-])cc([N+](=O)[O-])c3)CCCC2)cc1OC,4.01% (inactive)
18,Cc1cc(-n2nc(C)cc2C)nc(NS(=O)(=O)c2ccccc2)n1,14.8% (inactive)
19,Cc1ccccc1-n1ccnc1SCC(=O)O,23% (inactive)
20,COc1ccc(S(=O)(=O)NCc2csc(-c3cccnc3)n2)cc1,4.07% (inactive)
21,CCOC(=O)/C(C#N)=C1/C=Cc2ccccc2N1CC,10.7% (inactive)
22,O=C(Nc1ccc(Cl)cc1)c1cc2nc(-c3ccco3)cc(C(F)(F)F)n2n1,14.3% (inactive)
23,Cc1ccc(O)c(NC(=S)NC(=O)c2ccc(-c3ccc(Cl)cc3)o2)c1,20.3% (inactive)
24,Cc1cc(C)nc(/N=C2\NC(=O)CC(C(=O)O)N2c2ccc(Cl)cc2Cl)n1 (configuration not stated),0.87% (inactive)
25,O=c1c2cccnc2[nH]c(=S)n1CCCN1CCN(c2ccc(F)cc2)CC1,1.58% (inactive)

row,Compound,inhibition
1,CCCCCn1c(CN2CCN(Cc3ccccc3)CC2)nc2c1c(=O)n(C)c(=O)n2C,2.55% (inactive)
2,CCOC(=O)N1CCC(N2CCN(S(=O)(=O)c3ccc(NC(C)=O)cc3)CC2)CC1,5.13% (inactive)
3,COc1cc(CNCc2ccco2)ccc1OCc1ccccc1,11.6% (inactive)
4,CCOC(=O)Cc1csc(NC(=O)COc2ccc(OC)cc2)n1,6.28% (inactive)
5,O=C(CN(CC1CCCO1)C(=O)CCC(=O)Nc1nccs1)NCc1ccc2c(c1)OCO2 (configuration not stated),33.3% (inactive)
6,CCCCCOC(=O)Cn1c(SCC(=O)Nc2ccccc2)nc2c1c(=O)[nH]c(=O)n2C,-1.58% (inactive)
7,CCOC(=O)c1cc(-c2ccccc2)sc1NC(=S)Nc1cccc(C)n1,-0.25% (inactive)
8,Cc1ccc(N2C(=O)[C@@H]3C(C(=O)CCN4C(=O)c5ccccc5C4=O)=NN[C@@H]3C2=O)cc1,6.74% (inactive)
9,CN(C)S(=O)(=O)c1ccc(NS(=O)(=O)/C=C/c2ccccc2)cc1,0.79% (inactive)
10,CC(C)c1c(O)cc(-c2ccncc2)n(-c2ccc(Cl)cc2)c1=O,3.17% (inactive)
11,Cc1cc(NC(=O)CSc2nnc3c4c(C)c(C)sc4ncn23)no1,14.7% (inactive)
12,O=C1CC(N(Cc2cccs2)C(=O)Nc2ccccc2)C(=O)N1c1ccc(Cl)cc1 (configuration not stated),-1.04% (inactive)
13,COc1ccc2c(c1)c1ncn(CCCN3CCOCC3)c(=O)c1n2C,1.07% (inactive)
14,O=C(C1CCN(c2nc3ccc(Br)cc3s2)CC1)N1CCC2(CC1)OCCO2,5.07% (inactive)
15,Cc1ccc(Cn2ncc3c(N4CCN(C5CCCC5)CC4)ncnc32)cc1,3.96% (inactive)
16,Cc1ccc(NC(=O)CSc2nc3ccccc3c3nc(CCc4c(C)n[nH]c4C)nn23)cc1F,47.2% (inactive)
17,COc1ccccc1C1/C(=C(/O)c2ccc(C)cc2)C(=O)C(=O)N1CCN1CCOCC1 (configuration not stated),6.7% (inactive)
18,Cn1c(CCNC(=O)C2CCCCC2)nc2cc(NC(=O)c3cccs3)ccc21,3.87% (inactive)
19,CCc1ccc(N2CC(C(=O)Nc3cccnc3)CC2=O)cc1 (configuration not stated),30.5% (inactive)
20,CCCCn1c2nc3ccccc3nc2c2c(=O)n(-c3ccccc3)cnc21,-1.49% (inactive)
21,COc1ccc(C(=O)OCCNC(=O)c2c(Cl)nc3ccccn23)cc1,3.04% (inactive)
22,CCOCc1nnc(NC(=O)CCc2ccccc2)s1,9.8% (inactive)
23,O=S(=O)(N1CCOCC1)N1CCN(c2ccccc2F)CC1,-1.16% (inactive)
24,CCCCN(CCCC)S(=O)(=O)c1ccc(NC(=O)c2cccs2)cc1,-4.73% (inactive)
25,CC1CC1c1ccc(/C=C(\C#N)C(=O)Nc2ccc(Cl)cc2)o1 (configuration not stated),7.94% (inactive)

row,Compound,inhibition
1,Fc1ccccc1SCc1nnc(-c2ccccc2Br)o1,9.24% (inactive)
2,CC(OC(=O)c1ccco1)C(=O)NC1CCCCC1 (configuration not stated),18.2% (inactive)
3,CN1c2ccccc2C2(C)CCCC3=Cc4cccc([N+](=O)[O-])c4OC312 (configuration not stated),2.99% (inactive)
4,N/C(=N\S(=O)(=O)c1cccs1)c1ccccc1,13.7% (inactive)
5,O=C(O)c1cc2nc(-c3ccc(F)cc3)cc(C(F)(F)F)n2n1,8.45% (inactive)
6,COc1ccc(Cc2nnc(NC(=O)Cc3cccs3)s2)cc1,1.69% (inactive)
7,Cn1c(N)c(C(=O)COC(=O)CN2C(=O)c3ccccc3C2=O)c(=O)n(C)c1=O,17.5% (inactive)
8,Cc1cccc(NC(=O)CCSc2nc(C)cc(C)n2)c1,4.57% (inactive)
9,O=C(O)C(=O)/C(=C\c1ccccc1)c1ccc2ccccc2n1,23.7% (inactive)
10,Cc1ccc(NC(=O)c2ccc(OC(=O)CCN3C(=O)c4ccccc4C3=O)cc2)cc1,42.6% (inactive)
11,CC(C)C(c1nnnn1Cc1ccccc1)N1CCC(C(N)=O)CC1 (configuration not stated),9.62% (inactive)
12,O=C(CCl)N1N=C(c2ccco2)CC1c1cccs1 (configuration not stated),26.9% (inactive)
13,Brc1ccc(C2=CC(c3cccs3)n3ncnc3N2)cc1 (configuration not stated),13.5% (inactive)
14,CCc1cccc(CC)c1NC(=O)COC(=O)c1cccc(-c2ccc(OC(C)=O)cc2)c1,1.97% (inactive)
15,O=C(Nc1nnc(SCc2ccccc2)s1)c1cccc([N+](=O)[O-])c1,6.01% (inactive)
16,C=CCN1CCN(C(c2cc(OC)ccc2OC)c2nnnn2CC2CCCO2)CC1 (configuration not stated),31.2% (inactive)
17,COc1ccc(OC)c(CCNC(=O)CSc2ccsc2[N+](=O)[O-])c1,4.97% (inactive)
18,COc1ccc(C2N=C(N)N=C(N)N2c2ccccc2)cc1OC (configuration not stated),23% (inactive)
19,O=C(NC1CCCCC1)C(c1cccs1)N(C(=O)c1ccco1)c1ccc2c(c1)OCCO2 (configuration not stated),8.94% (inactive)
20,COc1ccc(-n2c(C)cc(C(=O)COc3ccc(C)nc3[N+](=O)[O-])c2C)cc1,31.4% (inactive)
21,Cc1ccc(CNC(=O)C2CCN(S(=O)(=O)c3c(C)noc3/C=C/c3ccco3)CC2)cc1,4.12% (inactive)
22,O=c1cc(C(F)F)oc2c1ccc1ccccc12,-6.72% (inactive)
